Assay results: article PMC6891695, “Evaluation of Antifouling Potential and Ecotoxicity of Secondary Metabolites Derived from Red Algae of the Genus Laurencia” (Marine Drugs, 2019)

Tests used:
HEK293 cell line = experiment: HEK293 crystal violet assay (cell viability); format: cell-based, human; conditions: for cytotoxicity in crystal violet assay (in words): HEK293; for EC50: Homo sapiens, HEK293, Crystal violet assay, 48 h incubation
Procedure: (§1) The RTL-W1 cell line, a non-transformed rainbow trout liver cell line that has already been used in environmental toxicity assays, was established from the normal liver of an adult rainbow trout by proteolytic dissociation of liver fragments. RTL-W1 cells were cultured in 75 cm^2 culture flasks (Orange Scientific, Braine l’Alleud, Belgium) at 20 °C in Leibovitz’s (L-15, Sigma-Aldrich, St. Louis, MO, USA) medium supplemented with 5% fetal bovine serum (FBS) and 1% L-glutamine in CO2-free incubator. For the cytotoxicity assays of the selected secondary metabolites, cells were seeded at 3 × 10^4 cells/well density in a 96-well tissue culture plate (Orange Scientific Braine l’Alleud, Belgium) in 100 μL culture medium/well for 2 days before the assays. Three different cytotoxicity protocols were used: 1) The alamar blue/resazurin fluorometric/colorimetric cell viability assay to assess the metabolic capacity and mitochondrial function; 2) the crystal violet cell viability assay for indirect quantification of cell death; and 3) the neutral red cell proliferation assay for lysosomal activity. Two days after seeding the cells, cultures were incubated with various concentrations of selected secondary metabolites at 20 °C for 48 h before cell viability was assessed. […] For the alamar blue/resazurin fluorometric/colorimetric cell viability assay, 100 μL of 3 μg/100 μL Resazurin sodium salt (Sigma-Aldrich, St. Louis, MO, USA) in incubation medium was added on each well and incubated under sterile conditions at 20 °C for 4 h. For the crystal violet cell viability assay, after 48 h of incubation with each secondary metabolite, the culture medium was aspirated and cells were washed twice with sterile dd. H2O. The final wash was aspirated and 50 μL of 0.5% (w/v) crystal violet staining solution (20% methanol in dd. H2O) was added to each well followed by incubation for 20 min at room temperature on a bench rocker with a frequency of 20 oscillations per minute. The staining solution was then aspirated and the plate was washed four times with sterile dd. H2O and left to air-dry without its lid for 3 h at room temperature. Next, 200 μL of methanol was added to each well, and the plate was incubated with its lid on for 20 min at room temperature on a bench rocker with a frequency of 20 oscillations per minute. For the neutral red cell proliferation assay, after 48 h of incubation with each secondary metabolite, the culture medium was aspirated and cells were washed twice with phosphate-buffered saline (PBS, pH 7.4). Cells were then incubated with 100 μL of a 40 μg/mL neutral red staining solution in culture medium at 20 °C for 4 h followed by two washes with 150 μL of PBS. Then cells were incubated with 100 μL neutral red destain solution (50% ethanol, 49% dd. H2O, 1% glacial acetic acid) for 10 min on a bench rocker with a frequency of 80 oscillations per minute. Absorbance was read at 570 nm for alamar blue/resazurin and crystal violet and at 540 nm for neutral red using a Tecan infinite M200 Pro microplate reader. For each assay and each secondary metabolite, a minimum of four independent dose–response experiments with three replicates each were carried out. Calculations were carried out using detailed formulas (AbCam, Cambridge, UK, and results were analyzed with GraphPad Prism v.6.
HEK293 cells, a human embryotic kidney cell line, were obtained from ATCC (ATCC® CRL-1573™) at passage 37 of the original clone and used at passage 38. Cells were cultured routinely in 75 cm^2 culture flasks (Orange Scientific, Braine l’Alleud, Belgium) at 37 °C (5% CO2) in DMEM cell culture medium (Biosera) supplemented with 10% FBS (Sigma-Aldrich, St. Louis, MO, USA) and 1% L-glutamine. All assay conditions and protocols were identical to those described above for RTL-W1 cells with the exception that incubations were carried out at 37 °C. […]

RTL-W1 cell line = experiment: RTL-W1 neutral red assay (lysosome activity); format: cell-based, rainbow trout; conditions: Oncorhynchus mykiss, 48 h incubation
Procedure: as §1, with “For the neutral red cell proliferation assay, after 48 h of incubation with each secondary metabolite, the culture medium was aspirated and cells were washed twice with phosphate-buffered saline (PBS, pH 7.4). Cells were then incubated with 100 μL of a 40 μg/mL neutral red staining solution in culture medium at 20 °C for 4 h followed by two washes with 150 μL of PBS. Then cells were incubated with 100 μL neutral red destain solution (50% ethanol, 49% dd. H2O, 1% glacial acetic acid) for 10 min on a bench rocker with a frequency of 80 oscillations per minute.” left out, “For each assay and each secondary metabolite, a minimum of four independent dose–response experiments with three replicates each were carried out.” left out, “v.6. […]” for “v.6.”

Bacillus subtilis = experiment: Marine bacteria growth assay (disc diffusion); format: cell-based; conditions: 24 h at 25 °C
Procedure: (§2) The ability of selected metabolites to inhibit the growth of bacteria was assessed using five strains of marine bacteria involved in marine surface biofilm formation, namely, B. subtilis, B. mojavensis, B. thuringiensis, P. putita and P. pseudoalcaligenes. Bacterial strains were maintained on Zobel marine agar plates. Sterile filter paper discs (4 mm) (GF/F; GE Healthcare, Little Chalfont, UK) were loaded with 40 μL samples of serial dilutions of each tested metabolite, allowed to dry at room temperature and then placed on agar plates (Zobel marine agar, pH = 7.3), which were seeded with a single strain of bacteria. Plates were incubated for 24 h at 25 °C. Marine bacteria growth inhibition was determined by measuring the zone of inhibition in mm around the filter paper disc. As a positive and negative control, standard discs were loaded with 40 μL of 0.5 M penicillin G (2 to 10 mm diameter) or solvent (40 μL methanol), respectively.

Bacillus thuringiensis = experiment: Marine bacteria growth assay (disc diffusion); format: cell-based; conditions: 24 h at 25 °C
Procedure: as §2

Bacillus mojavensis = experiment: Marine bacteria growth assay (disc diffusion); format: cell-based; conditions: 24 h at 25 °C
Procedure: as §2

Pseudomonas putita = experiment: Marine bacteria growth assay (disc diffusion); format: cell-based; conditions: 24 h at 25 °C
Procedure: as §2

[1] = test system: Pseudomonas pseudoalcaligenes; experiment: Marine bacteria growth assay (disc diffusion); format: cell-based; conditions: 24 h at 25 °C
Procedure: as §2

[2] = Artemia salina toxicity assay; format: in vivo; conditions: Artemia salina, in vivo, read-out: EC50 Artemia salina toxicity (mortality)
Procedure: The short-term toxicity assay with A. salina nauplii was used to determine the toxicity of secondary metabolites. Hatching of A. salina nauplii was carried out in ASW (35‰) using 0.5 g of cysts incubated in 500 mL seawater at a temperature of 25 ± 1 °C and lateral illumination (1000 Lux). All cysts were kept in continuous suspension with aeration and 24 h later hatched larvae (instar I) were harvested. Toxicity assays were carried out in three independent experiments in 24-well plates with four replicates of each tested concentration. Ten nauplii per well were transferred with a Pasteur pipette into the 24-well plates and each well was filled with 2 mL of ASW and 50 μL of various concentrations of the tested compounds in methanol. Control treatments received 50 μL of methanol. Plates were incubated in the dark at 25 ± 1 °C for 48 h. Mortality was assessed by recording the number of individuals with no movement of their appendages within 10 seconds and is expressed as the percentage of the total number of assessed individuals for each concentration.
For EC50 or IC50 (the concentration that results in 50% stimulation or inhibition relative to the control) calculations in GraphPad Prism v.6, all data were fitted to the curve according to the following models for normalized response: Y = 100/(1 + 10^((X − LogIC50))) or Y = 100/(1 + 10^((LogEC50 − X))) depending on the trend of the curve.

CC(C)[C@@H]1CC=C[C@H]2[C@H]3[C@](C)(CC[C@]12CBr)[C@@H](Br)CC[C@@]3(C)O [Bromosphaerol, reference compound]
cytotoxicity in crystal violet assay (in words) (HEK293 cell line): mild cytotoxicity
EC50 (HEK293 cell line): 97.1 µM
EC50 (RTL-W1 cell line): 144 µM
effect on bacterial growth (Bacillus subtilis): none of these metabolites had any effect
effect on bacterial growth (Bacillus thuringiensis): none of these metabolites had any effect
effect on bacterial growth (Bacillus mojavensis): none of these metabolites had any effect
effect on bacterial growth (Pseudomonas putita): none of these metabolites had any effect
effect on bacterial growth [1]: none of these metabolites had any effect

CC1=C2CC[C@@](C)(Cl)[C@@H](Br)C[C@]2(C)[C@@H](C)[C@@H](Br)[C@@H]1O [Compound 9, perforenol]
cytotoxicity in crystal violet assay (in words) (HEK293 cell line): mild cytotoxicity
EC50 (HEK293 cell line): 81.1 µM
EC50 (RTL-W1 cell line): > 1000 µM
effect on bacterial growth (Bacillus subtilis): none of these metabolites had any effect
effect on bacterial growth (Bacillus thuringiensis): none of these metabolites had any effect
effect on bacterial growth (Bacillus mojavensis): none of these metabolites had any effect
effect on bacterial growth (Pseudomonas putita): none of these metabolites had any effect
effect on bacterial growth [1]: none of these metabolites had any effect
LC50 at 24 h [2]: 283 µM
LC50 at 48 h [2]: 189 µM

C=CC(C)(O)CC[C@@H]1C(=C)CC[C@@H](Br)[C@@]1(C)CCC1OC1(C)C (stereo partly drawn) [Compound 18]
EC50 (HEK293 cell line): > 1000 µM
EC50 (RTL-W1 cell line): 138 µM
effect on bacterial growth (Bacillus subtilis): none of these metabolites had any effect
effect on bacterial growth (Bacillus thuringiensis): none of these metabolites had any effect
effect on bacterial growth (Bacillus mojavensis): none of these metabolites had any effect
effect on bacterial growth (Pseudomonas putita): none of these metabolites had any effect
effect on bacterial growth [1]: none of these metabolites had any effect
LC50 at 24 h [2]: 34.9 µM
LC50 at 48 h [2]: 38.1 µM

C=C(C1CCC(C)(O)C(Br)C1)C1C(Br)C2C(CCC2(C)O)C1(C)C (stereo not drawn) [Compound 19, neorogioldiol]
EC50 (HEK293 cell line): 434 µM
EC50 (RTL-W1 cell line): > 1000 µM
effect on bacterial growth (Bacillus subtilis): none of these metabolites had any effect
effect on bacterial growth (Bacillus thuringiensis): none of these metabolites had any effect
effect on bacterial growth (Bacillus mojavensis): none of these metabolites had any effect
effect on bacterial growth (Pseudomonas putita): none of these metabolites had any effect
effect on bacterial growth [1]: none of these metabolites had any effect
LC50 at 24 h [2]: 31.5 µM
LC50 at 48 h [2]: 304 µM
